What was measured:
[1] = Comparison of effect on growth in castrated male White Leghorn chickens (Study IV, Table II); assay type: in vivo
Method: The single comb White Leghorn strain (Dekalb XL) of chicken (Avian Services, Frenchtown, N.J.) was used in all studies. Chicks were obtained on the day following hatch and were then maintained in a well ventilated, temperature- and humidity-controlled animal room. Chicks were housed in temperature-controlled (access to small brood chambers--32° to 35° C.), wire-floored, 5-tier brooder batteries (measuring 0.74 W×1.55 L×0.27 H m per tier) until termination of respective studies. A 12 hour light:12 hour dark photoperiod was maintained at all times within the animal room. Feed and water were available ad libitum, with a standard commercial diet (Agway; Bordentown, N.J.), chick starter mash, fed to chicks 1 to 42 days of age, and then from 43 to 84 days, grower mash was provided (manufacturer statement on ration compositions are shown in Table 2).
Excluding Study II, chicks were either castrated (Quigley, 1967) or sham-operated at 13 days of age. Prior to castration, cockerels were deprived of feed and water for 24 hours in order that the intestines may become empty and thus permit better vision into the body cavity and accessibility to testes. Birds were restrained by fastening the wings and legs with leather straps so that sufficient tension was applied to hold the bird well stretched out in a lateral recumbency (on its left side). Next, an approximate 1 inch incision was made midway between the last two ribs and a small rib spreader inserted to hold the ribs about 1/2 inch apart.
Forceps were used to remove both testicles, with the lower or left testicle removed first. The forceps were carefully worked over the testicle and so manipulated as to enclose the entire organ. It was then drawn out with a slight twisting motion. At this step, care was taken not to rupture any of the primary blood vessels. When the rib spreader was removed, and the tension on the bird released (i.e., leg and wing straps removed), the skin and thigh muscles slipped back over the incision thus affording a natural protection. No special care was necessary for surgically manipulated birds other than to puncture "air pockets" which developed under the skin due to air escaping from within the abdominal cavity before the incision between the ribs was healed.
In all studies, chicks were rank-ordered by weight, wing-banded and distributed into treatment groups of equal body weights at 14 days of age. Excluding Study I, e.g., in which male, female and castrate male comparisons were made, all control groups were implanted with 1.0-cm length cholesterol-filled Silastic polysiloxane implants (i.e., steroid surface exposure of 1.0-cm; actual length was 2.0-cm with 1/2 cm wood dowel plugs placed at each end of implant). The remaining treatment groups consisted of chicks (male, female or castrated male) implanted with either testosterone-, 5-alpha-DHT-, 5-beta-DHT-, estradiol-17-beta-, or 19-nortestosterone-filled Silastic polysiloxane implants with steriod surface exposures of either 0.3, 1.0 or 3.0 cm in length. Steroid implants were prepared by manually packing respective crystalline steroids (Steraloids; Wilton, N.H.) into Silastic Medical Grade tubing (1.57 mm i.d.; Dow Corning) (Smith et al., 1977). The amounts of steroid contained in the implants were as follows (mean±SEM of 20 randomly chosen implants, 5 for each steroid): 2.6±0.2 mg (0.3-cm), 8.9±0.4 mg (1.0-cm), and 29.2±0.7 mg 3.0-cm). At the time of group assignment, implants were placed in the subcutaneous (S.C.) layer of skin behind the neck. Supplemental steroid implants (containing doses of steroids equivalent to those of the initial implants) were implanted at 6 and 10 weeks of age, without removal of prior implants, to ensure adequate androgen replacement with increasing growth. Cage floors and fecal collection trays were checked for 2 consecutive days following each implantation session to ensure completeness of procedure. […]

testosterone antiserum = assay: Radioimmunoassay for testosterone: antiserum cross-reaction and inhibition of binding; parameters: species or system rabbits; conditions: standard curve
Method: Plasma concentrations of testosterone were assayed using component kits from Immuchem Corporation (Carson, Calif.) in which charcoal-stripped chicken plasma (free of testosterone) was used to make up the standards. The antibody is covalently bound to the inner surface of each polypropylene tube (testosterone-19-carboxymethylether-BSA was the antigen used to generate the antiserum in rabbits). To these tubes (at room temperature), a 50 microliter volume of either standard or unknown plasma as added directly without extraction. Following this, a 1000-microliter volume (^~ 40,000 cpm) of ^125 I-testosterone (purified by HPLC and radio-iodinated at position 19; Immuchem Corp.) in phosphosaline buffer-gelatin (pH 7.0) was added and the mixture was vortex mixed briefly. After a 2 hour incubation at room temperature, tubes were placed into styrofoam holding racks and the supernatant decanted onto tin trays lined with newspapers. Residual supernatant left on inside walls of tubes was removed by everting styrofoam holding racks and impacting them onto dry absorbent paper towels. At this point, the assay tubes, with their wall bound antibody-antigen complexes, were counted on a Beckman 5500 gamma counter to determine the radioactivity (^125 I-testosterone) which was antibody-bound. The plasma concentrations of testosterone in unknown samples were determine based on the standards (from 0.10-10 ng/ml) in charcoal-stripped chicken plasma included with each assay.
The Immuchem testosterone antiserum cross-reacts 100% with testosterone, 7.8% with 5-alpha-DHT, 0.56% with 4-adrosten-3,17-dione, and less than 0.01% with 5-alpha-androstane-3-alpha,17-beta-diol and estrogens (manufacturer statement). […] The mean between-assay CV for low and high plasma pools was less than 11.0% (n=5).

5-alpha-DHT anti-serum = conditions: antibody provided by Dr. Alan L. Johnson; cited from earlier work
[2] = 0.1-cm implant (so in the source)
[3] = 0.3-cm implant, given unsigned (decrease vs cholesterol)
[4] = 3.0-cm implant, given unsigned (decrease vs cholesterol)
[5] = 1.0-cm implant, given unsigned (decrease vs cholesterol)

C[C@]12CC[C@H]3[C@@H](CCC4=CC(=O)CC[C@@]43C)[C@@H]1CC[C@@H]2O [Testosterone, testosterone]
6-week Body Wt. [1, 2]: 503 ± 10 g | 12-week Body Wt. [1, 2]: 1287 ± 25 g | Adipose Abdominal [1, 2]: 15 ± 3 g | Final 12-week Shank-toe Length [1, 2]: 16.9 ± 0.14 cm | Right Breast Muscle [1, 2]: 61 ± 2 g | Adipose Abdominal Change ([1]; 0.1-cm implant (so in the source), given unsigned (decrease vs cholesterol)): 37.5% | 6-week Body Wt. ([1]; 0.3-cm implant): 501 ± 13 g | 12-week Body Wt. ([1]; 0.3-cm implant): 1262 ± 35 g | Adipose Abdominal ([1]; 0.3-cm implant): 16 ± 2 g | Final 12-week Shank-toe Length ([1]; 0.3-cm implant): 17.0 ± 0.16 cm | Right Breast Muscle ([1]; 0.3-cm implant): 61 ± 2 g | Adipose Abdominal Change [1, 3]: 33.3% | 6-week Body Wt. ([1]; 3.0-cm implant): 505 ± 13 g | 12-week Body Wt. ([1]; 3.0-cm implant): 1207 ± 25 g | Adipose Abdominal ([1]; 3.0-cm implant): 10 ± 3 g | Final 12-week Shank-toe Length ([1]; 3.0-cm implant): 16.4 ± 0.16 cm | Right Breast Muscle ([1]; 3.0-cm implant): 55 ± 2 g | 12-week Body Wt. Change [1, 4]: 5.6% | Adipose Abdominal Change [1, 4]: 58.3% | Final 12-week Shank-toe Length Change [1, 4]: 3.5% | Right Breast Muscle Change [1, 4]: 14.1% | 80 percent inhibition of binding (testosterone antiserum; n=5): 462.5±1.5 pg/tube | Twenty percent inhibition of binding (testosterone antiserum; n=5): 15.8±1.7 pg/tube | 50 percent inhibition of binding (testosterone antiserum; n=5, 1.95 pg to 500 pg): 78.8±9.6 pg/tube

C[C@]12CCC(=O)C[C@@H]1CC[C@@H]1[C@@H]2CC[C@]2(C)[C@@H](O)CC[C@@H]12 [5-alpha-DHT, 5-alpha-dihydrotestosterone]
6-week Body Wt. ([1]; 0.3-cm implant): 515 ± 10 g | 12-week Body Wt. ([1]; 0.3-cm implant): 1191 ± 26 g | Adipose Abdominal ([1]; 0.3-cm implant): 10 ± 2 g | Final 12-week Shank-toe Length ([1]; 0.3-cm implant): 16.4 ± 0.10 cm | Right Breast Muscle ([1]; 0.3-cm implant): 57 ± 2 g | 12-week Body Wt. Change [1, 3]: 6.9% | Adipose Abdominal Change [1, 3]: 58.3% | Final 12-week Shank-toe Length Change [1, 3]: 3.5% | Right Breast Muscle Change [1, 3]: 10.9% | 6-week Body Wt. ([1]; 1.0-cm implant): 485 ± 12 g | 12-week Body Wt. ([1]; 1.0-cm implant): 1140 ± 39 g | Adipose Abdominal ([1]; 1.0-cm implant): 6 ± 1 g | Final 12-week Shank-toe Length ([1]; 1.0-cm implant): 16.1 ± 0.24 cm | Right Breast Muscle ([1]; 1.0-cm implant): 51 ± 3 g | 12-week Body Wt. Change [1, 5]: 10.9% | Adipose Abdominal Change [1, 5]: 75.0% | Final 12-week Shank-toe Length Change [1, 5]: 5.3% | Right Breast Muscle Change [1, 5]: 15.6% | 6-week Body Wt. ([1]; 3.0-cm implant): 415 ± 15 g | 12-week Body Wt. ([1]; 3.0-cm implant): 872 ± 53 g | Adipose Abdominal ([1]; 3.0-cm implant): 0.5 ± 0.2 g | Final 12-week Shank-toe Length ([1]; 3.0-cm implant): 13.7 ± 0.34 cm | Right Breast Muscle ([1]; 3.0-cm implant): 36 ± 3 g | 6-week Body Wt. Change [1, 4]: 19.1% | 12-week Body Wt. Change [1, 4]: 31% | Adipose Abdominal Change [1, 4]: 97.9% | Final 12-week Shank-toe Length Change [1, 4]: 19.4% | Right Breast Muscle Change [1, 4]: 43.8% | reaction with 5-alpha-DHT anti-serum (Ford's-F/1) (5-alpha-DHT anti-serum): 100%

Reference: patent publication US5208032A, “Increasing the growth of turkeys using implant of 19-nortestosterone” (Rutgers, The State University of New Jersey, priority 1992, dated 1993)
